Entries after “also recorded” stand apart in the source; their conditions may differ.
Columns and labels:
[1] = system: ear cells derived from a newborn cloned calf (C188/Firstdown-FB000); assay: Nuclear transfer with lovastatin-treated bovine ear cells: in vitro embryo development; format: cell-based; settings: for Emb. Devel. (% Blastocyst): NT embryos from ear cells treated with lovastatin for 24 hours, day 7 of culture
Method: Mycoplasma free totipotent cells used in the NT procedure, were prepared by cutting out a group of cells from the culture dish using a glass needle. The cells were then incubated in a TL HEPES solution containing from 1 to 3 mg/ml pronase E at approximately 32° C. for 15-60 minutes, the amount of time which was needed in this example to disaggregate the cells. Once the cells were in a single cell suspension they were used for NT within a 2-3 hour period.
Oocytes aspirated from ovaries were matured overnight (16 hours) in maturation medium. Medium 199 (Biowhittaker, Cat #12-119F) supplemented with luteinizing hormone 10 IU/ml (LH; Sigma, Cat #L9773), […] (Sigma, Cat #E8875) and 10% FCS or estrus cow serum, was used. Within 16-17 hours of maturation, the cumulus layer expanded and the first polar bodies were extruded.
In the first NT procedure, young oocytes (16-17 hours in maturation medium) were stripped of their cumulus cell layers and nuclear material stained with Hoechst 33342 5 mg/ml (Sigma, Cat #2261) in TL HEPES solution supplemented with cytochalasin B (7 μg/ml, Sigma, Cat #C6762) for 15 min. Oocytes were then enucleated in TL HEPES solution under mineral oil. A single cell of optimal size (12 to 15 μm) was then selected from a cell suspension and injected into the perivitelline space of the enucleated oocyte. The cell and oocyte membranes were then induced to fuse by electrofusion in a 500 μm chamber by application of an electrical pulse of 90V for 15 μs.
Cybrid activation was induced by a 4 min exposure to 5 μM calcium ionophore A23187 (Sigma Cat. #C-7522) or ionomycin Ca-salt in HECM (hamster embryo culture medium) containing 1 mg/ml BSA followed by a 1:1000 dilution in HECM containing 30 mg/ml BSA for 5 min. For HECM medium, See, e.g., Seshagiri & Barister, 1989, “Phosphate is required for inhibition of glucose of development of hamster eight-cell embryos in vitro,” Biol. Reprod. 40: 599-606. […]

estrus synchronized ewes = assay: Transfer of NT blastocysts from lovastatin-treated ovine cells into recipient ewes: pregnancy outcome
recipients = assay: Transfer of NT blastocysts from lovastatin-treated bovine cells into recipients: pregnancy outcome; format: in vivo
Method: After blastomere-oocyte fusion, the cybrids from second generation NT were cultured in CR2 media supplemented with BSA (3 mg/ml) under humidified air with 5% CO2 at 39° C. On the third day of culture, developing embryos were evaluated and cultured further until day seven in CR2 media containing 10% FCS. Morphologically good to fair quality embryos were non-surgically transferred into recipient females.
Similar results were obtained using statin-treated bovine cells in nuclear transfer procedures. […] One or two blastocysts were non-surgically transferred into 5 recipients of which two became pregnant (Table 3).

[2] = system: ear cells (SA01-FB) used as nuclear donors; assay: Nuclear transfer with lovastatin-treated ovine ear cells: in vitro embryo development; format: cell-based, sheep; settings: NT embryos from SA01-FB ear cells treated with 5 μM lovastatin for 24 hours; per day of NT
Method: Oocytes were aspirated from sheep ovaries obtained from an abattoir and recovered in TL HEPES medium (Biowhittaker 04-616F) containing 10 mg/ml Heparin (Sigma H-3393) and 4 mg/ml BSA (Sigma A-6003). Aspirations were performed using 20 GA needles with the vacuum set at 60 mm Hg.
Two maturation media were used to produce nuclear transfer pregnancies. Maturation Medium 1: TC199 (Gibco 11150-059), 2 mM Glutamine (Sigma G-5763), 10% FBS (Hyclone A-111D), 5 mg/ml ovine FSH (Sigma L-8174), 5 mg/ml ovine LH (Sigma L-5269), 1 mg/ml Estradiol (Sigma E-2257), 0.3 mM Na-pyruvate (Sigma P-4562), and […] (Sigma M-9768). Maturation Medium 3: TC199 (Gibco 11150-059), 10% FBS (Hyclone A-111D), 10 mg/ml ovine FSH (Sigma L-8174), 10 mg/ml ovine LH (Sigma L-5269), 1 mg/ml Estradiol (Sigma E-2257) and […] (Sigma M-9768).
Typically, oocytes were stripped of cumulus cells after 17 hours in maturation medium by vortexing in 0.5 ml of TL-HEPES. The chromatin was stained with Hoechst 33342 (5 mg/ml, Sigma) in TL-HEPES solution for 15 minutes. Oocytes were then enucleated in TL-HEPES with or without calcium.
All nuclear transfers were performed in TL HEPES containing calcium regardless of what enucleation medium was used. […]

CC[C@H](C)C(=O)O[C@H]1C[C@@H](C)C=C2C=C[C@H](C)[C@H](CC[C@@H]3C[C@@H](O)CC(=O)O3)[C@H]21 [lovastatin]
Emb. Devel. (% Blastocyst) [1]: 19%
Emb. Devel. (% Blastocyst) ([1]; listed as LOVASTATIN): 19%
Number of blastocysts produced by day 7 of culture ([1]; lovastatin treated cells used in NT on two different days): 6
Status (of recipient after embryo transfer) (estrus synchronized ewes; NT blastocysts from lovastatin treated SA01-FB cells transferred into ewe, listed as L0): open and Lambed
Farrowed/Aborted (estrus synchronized ewes; Pregnancy Two, SA01-FB00 lovastatin treated, 4 Day 7 blastocysts transferred, recipient #56): farrowed
Number of recipients that became pregnant (recipients; of 5 recipients given one or two blastocysts): two
Outcome of pregnancies (recipients; two pregnancies from lovastatin treated bovine cells): One pregnancy aborted by day 32; also recorded: produced a live calf
# of Bl. (blastocysts, day 7) [2]: one and four

— patent US20040055025A1, “Immune response replication in cloned animals” (Infigen, Inc., priority 2002, published 2004)
